Read-outs that look alike come from different tables or passages of the source.
Legend:
HUVECs = experiment: High-content imaging cytotoxicity in HUVECs, 24 h; format: cell-based, human; conditions: Homo sapiens, HUVEC, 24 h, HUVECs; for viability at 0.01 µM / activity at 0.01 µM / viability at 0.1 µM / activity at 0.1 µM / viability at 1 µM / activity at 1 µM / viability at 10 µM / activity at 10 µM / viability at 100 µM / activity at 100 µM: 0.00 µM = 100.00; for viability at 0.1 µM / activity at 0.1 µM: 0.10 µM; for minimal effective concentration: top concentration 100.00 µM
Method in brief: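 HUVECs (passages 1–5) grown to monolayer over 3–5 d, then exposed 24 h at 37°C, 5% CO2; stained with Hoechst 33342, MitoTracker Orange and calcein AM and imaged at 10×. Readouts normalized to 0.5% DMSO vehicle, four-parameter logistic fit; POD at one-SD cutoff, 100μM assigned when no response.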

[1] = system: iCell endothelial cells (human iPSC-derived ECs); experiment: High-content imaging cytotoxicity in iCell endothelial cells, 24 h; format: cell-based; conditions: Homo sapiens, Endothelial cell, iPSC-EC, 24 hr; for viability at 0.1 µM / activity at 0.1 µM: 0.10 µM; for minimal effective concentration: top concentration 100.00 µM
Method in brief: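 Human iPSC-derived endothelial cells (passages 1–5) were grown to a fibronectin-coated monolayer, then exposed 24 h at 37 °C with 0.5% DMSO vehicle. Staining was Hoechst 33342, MitoTracker Orange and calcein AM, read by high-content imaging. Point of departure came from 4-parameter logistic fits, with a 1-SD vehicle cutoff and 100 µM as the top concentration.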

[2] = 24 hr, read-out: huvec.cyto.24hr
[3] = 24 hr, read-out: huvec.mito.24hr
[4] = 24 hr, read-out: huvec.mitoint.24hr
[5] = 24 hr, read-out: huvec.nma.24hr
[6] = 24 hrs, read-out: huvec.tc.24hrs
[7] = 0.00 µM control = 100.00, read-out: endo.cyto.24hr
[8] = 0.00 µM control = 100.00, read-out: endo.mito.24hr
[9] = 0.00 µM control = 100.00, read-out: endo.mitoint.24hr
[10] = 0.00 µM control = 100.00, read-out: endo.nma.24hr
[11] = 0.00 µM control = 100.00, read-out: endo.tc.24hrs

Clc1ccc(-c2ccccc2)cc1 [PCB3]
viability at 0.01 µM (HUVECs; [2]): 83.5% | activity at 0.01 µM (HUVECs; [3]): 83.3% | activity at 0.01 µM (HUVECs; [4]): 93.5% | activity at 0.01 µM (HUVECs; [5]): 94.7% | viability at 0.1 µM (HUVECs; [2]): 87.1% | activity at 0.1 µM (HUVECs; [3]): 86.7% | activity at 0.1 µM (HUVECs; [4]): 118% | activity at 0.1 µM (HUVECs; [5]): 93% | viability at 1 µM (HUVECs; [2]): 73.5% | activity at 1 µM (HUVECs; [3]): 72.5% | activity at 1 µM (HUVECs; [4]): 97.5% | activity at 1 µM (HUVECs; [5]): 93.1% | viability at 10 µM (HUVECs; [2]): 87.9% | activity at 10 µM (HUVECs; [3]): 85.4% | activity at 10 µM (HUVECs; [4]): 76% | activity at 10 µM (HUVECs; [5]): 85.2% | viability at 100 µM (HUVECs; [2]): 56% | activity at 100 µM (HUVECs; [3]): 44.6% | activity at 100 µM (HUVECs; [4]): 51% | activity at 100 µM (HUVECs; [5]): 71% | minimal effective concentration (HUVECs; 24 hr, read-out: huvec.cyto.24hr POD): 100 µM | minimal effective concentration (HUVECs; 24 hr, read-out: huvec.mito.24hr POD): 100 µM | minimal effective concentration (HUVECs; 24 hr, read-out: huvec.mitoint.24hr POD): 100 µM | minimal effective concentration (HUVECs; 24 hr, read-out: huvec.nma.24hr POD): 100 µM | viability at 0.01 µM (HUVECs; [6]): 83.5% | viability at 0.1 µM (HUVECs; [6]): 87.1% | viability at 1 µM (HUVECs; [6]): 73.7% | viability at 10 µM (HUVECs; [6]): 88% | viability at 100 µM (HUVECs; [6]): 56.1% | minimal effective concentration (HUVECs; 24 hrs, read-out: huvec.tc.24hrs POD): 100 µM | viability at 0.01 µM [1, 7]: 101% | activity at 0.01 µM [1, 8]: 101% | activity at 0.01 µM [1, 9]: 126% | activity at 0.01 µM [1, 10]: 97.7% | viability at 0.01 µM [1, 11]: 101% | viability at 0.1 µM [1, 7]: 100% | activity at 0.1 µM [1, 8]: 101% | activity at 0.1 µM [1, 9]: 109% | activity at 0.1 µM [1, 10]: 98% | viability at 0.1 µM [1, 11]: 100% | viability at 1 µM [1, 7]: 107% | activity at 1 µM [1, 8]: 107% | activity at 1 µM [1, 9]: 104% | activity at 1 µM [1, 10]: 95.8% | viability at 1 µM [1, 11]: 107% | viability at 10 µM [1, 7]: 106% | activity at 10 µM [1, 8]: 105% | activity at 10 µM [1, 9]: 100% | activity at 10 µM [1, 10]: 94.8% | viability at 10 µM [1, 11]: 106% | viability at 100 µM [1, 7]: 105% | activity at 100 µM [1, 8]: 106% | activity at 100 µM [1, 9]: 102% | activity at 100 µM [1, 10]: 95.7% | viability at 100 µM [1, 11]: 105% | minimal effective concentration ([1]; read-out: endo.cyto.24hr POD): 100 µM | minimal effective concentration ([1]; read-out: endo.mito.24hr POD): 100 µM | minimal effective concentration ([1]; read-out: endo.mitoint.24hr POD): 100 µM | minimal effective concentration ([1]; read-out: endo.nma.24hr POD): 100 µM | minimal effective concentration ([1]; read-out: endo.tc.24hrs POD): 100 µM

Source: paper PMC7377239, “Cardiovascular Effects of Polychlorinated Biphenyls and Their Major Metabolites” (Environmental Health Perspectives, 2020)
